The values below are quoted from earlier work in publication PMC5354290 (PLoS ONE, 2017).

Data set [1] concerns rat model of spared nerve injury. The settings on record: in vivo, iv.
Data set [2] has as its system rat model of formalin-induced pain. The settings on record: in vivo, iv.

As to Huwentoxin-IV [HwTx-IV], the “inhibition (in words)” value in the data set on rat NaV1.2 was “inhibits”; in the data set with rNaV1.5 it was “far less potent”; in the data set with rNaV1.3 it was “inhibits”; in the data set with rNaV1.4, “far less potent”.

As to `CN1CC[C@]23c4c5ccc(O)c4O[C@H]2[C@@H](O)C=C[C@H]3[C@H]1C5` [morphine], the “effective dose, times lower than those usually required for analgesia” value in data set [1] and in data set [2] was “at least 20 times” each time.
